Laboratory results: PubChem BioAssay AID248 (DTP/NCI, 2004)
“And” between values parts separate entries of the source, which are not always exact repeats. Equal entries are not always repeated. Toxic doses and inconclusive results are not listed.

System: L1210 leukemia ip in BDF1 mice, survival T/C
Assay: NCI In Vivo Anticancer Drug Screen. Data for tumor model L1210 Leukemia (intraperitoneal) in B6D2F1 (BDF1) mice
Conditions: endpoint: mean survival time, higher = longer survival
In short: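 Each compound was tested against a transplantable tumor grown in mice. The endpoint was survival, with treated animals benchmarked against vehicle controls as a simple ratio.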

[1] = dose: 100.0 mg/kg/injection, schedule: Q01DX009 (ip), vehicle: Klucel (hydroxypropylcellulose) (HPC)
[2] = dose: 100.0 mg/kg/injection, schedule: Q04DX002 (ip), vehicle: Klucel (hydroxypropylcellulose) (HPC)
[3] = dose: 200.0 mg/kg/injection, schedule: Q04DX002 (ip), vehicle: Klucel (hydroxypropylcellulose) (HPC)
[4] = dose: 400.0 mg/kg/injection, schedule: Q04DX002 (ip), vehicle: Klucel (hydroxypropylcellulose) (HPC)
[5] = dose: 100.0 mg/kg/injection, schedule: Q04DX003 (ip), vehicle: Klucel (hydroxypropylcellulose) (HPC)
[6] = dose: 200.0 mg/kg/injection, schedule: Q04DX003 (ip), vehicle: Klucel (hydroxypropylcellulose) (HPC)
[7] = dose: 400.0 mg/kg/injection, schedule: Q04DX003 (ip), vehicle: Klucel (hydroxypropylcellulose) (HPC)

## CN(C)Cc1c(CC(O)(c2ccccc2)c2ccccc2)ccc2ccccc12
dose: 50.0 mg/kg/injection, schedule: Q01DX001 (ip), vehicle: carboxymethylcellulose (CMC)
  T/C: 96 % of control
dose: 100.0 mg/kg/injection, schedule: Q01DX001 (ip), vehicle: carboxymethylcellulose (CMC)
  T/C: 100 % of control
dose: 200.0 mg/kg/injection, schedule: Q01DX001 (ip), vehicle: carboxymethylcellulose (CMC)
  T/C: 96 % of control
dose: 400.0 mg/kg/injection, schedule: Q01DX001 (ip), vehicle: carboxymethylcellulose (CMC)
  T/C: 105 % of control

## CCN(CC)c1ccc(Cc2cc(O)c3c(c2O)C(=O)c2ccccc2C3=O)cc1
dose: 50.0 mg/kg/injection, schedule: Q01DX009 (ip), vehicle: Klucel (hydroxypropylcellulose) (HPC)
  T/C: 89 % of control
[1]
  T/C: 104 % of control
[2]
  T/C: 89 % of control
[3]
  T/C: 89 % of control
[4]
  T/C: 96 % of control

## Cc1ccc(N=C=S)cc1F
dose: 75.0 mg/kg/injection, schedule: Q01DX001 (ip), vehicle: other
  T/C: 95 % of control

## CN1CCN(C(c2ccccc2)c2ccc(Cl)cc2)CC1 (configuration not stated)
dose: 6.25 mg/kg/injection, schedule: Q01DX009 (ip), vehicle: saline
  T/C: 102 % of control
dose: 12.5 mg/kg/injection, schedule: Q01DX009 (ip), vehicle: saline
  T/C: 92 % of control
dose: 12.5 mg/kg/injection, schedule: Q04DX003 (ip), vehicle: saline
  T/C: 95 % of control
dose: 25.0 mg/kg/injection, schedule: Q01DX009 (ip), vehicle: saline
  T/C: 94 % of control
dose: 25.0 mg/kg/injection, schedule: Q04DX003 (ip), vehicle: saline
  T/C: 111 % of control
dose: 50.0 mg/kg/injection, schedule: Q01DX009 (ip), vehicle: saline
  T/C: 100 % of control
dose: 50.0 mg/kg/injection, schedule: Q04DX003 (ip), vehicle: saline
  T/C: 90 % of control
dose: 100.0 mg/kg/injection, schedule: Q04DX003 (ip), vehicle: saline
  T/C: 97 % of control

## COc1cc(OC)c(-c2nc3cc(Cl)ccc3c(=O)o2)cc1OC
dose: 87.5 mg/kg/injection, schedule: Q01DX009 (ip), vehicle: Klucel (hydroxypropylcellulose) (HPC)
  T/C: 114 % of control
dose: 175.0 mg/kg/injection, schedule: Q01DX009 (ip), vehicle: Klucel (hydroxypropylcellulose) (HPC)
  T/C: 98 % of control
dose: 350.0 mg/kg/injection, schedule: Q01DX009 (ip), vehicle: Klucel (hydroxypropylcellulose) (HPC)
  T/C: 93 % of control

## O=[N+]([O-])c1ccccc1Sc1ccc2c3c(cccc13)CN(CCCO)C2
[2]
  T/C: 90 % of control
[3]
  T/C: 108 % of control
[4]
  T/C: 104 % of control

## CCCCCCCCCCCCN1CC1
dose: 10.0 mg/kg/injection, schedule: Q01DX009 (ip), vehicle: Klucel (hydroxypropylcellulose) (HPC)
  T/C: 108 % of control
dose: 20.0 mg/kg/injection, schedule: Q01DX009 (ip), vehicle: Klucel (hydroxypropylcellulose) (HPC)
  T/C: 109 % of control

## O=C1c2c(I)c(I)c(I)c(I)c2C(=O)N1CCO
[1]
  T/C: 92 % of control
[5]
  T/C: 94 % of control
dose: 200.0 mg/kg/injection, schedule: Q01DX009 (ip), vehicle: Klucel (hydroxypropylcellulose) (HPC)
  T/C: 97 % of control
[6]
  T/C: 97 % of control
dose: 400.0 mg/kg/injection, schedule: Q01DX009 (ip), vehicle: Klucel (hydroxypropylcellulose) (HPC)
  T/C: 104 % of control
[7]
  T/C: 92 % of control

## C1O[C@@H]1[C@@H]1CO1
dose: 10.5 mg/kg/injection, schedule: Q01DX015 (ip), vehicle: saline
  T/C: 110 % of control
dose: 18.0 mg/kg/injection, schedule: Q01DX015 (ip), vehicle: saline
  T/C: 110 % of control
dose: 44.0 mg/kg/injection, schedule: Q01DX001 (ip), vehicle: saline
  T/C: 111 % of control and 116 % of control
dose: 66.0 mg/kg/injection, schedule: Q01DX001 (ip), vehicle: saline
  T/C: 150 % of control
dose: 100.0 mg/kg/injection, schedule: Q01DX001 (ip), vehicle: saline
  T/C: 173 % of control
dose: 100.0 mg/kg/injection, schedule: Q01DX010 (ip), vehicle: water
  T/C: 167 % of control
dose: 200.0 mg/kg/injection, schedule: Q01DX010 (ip), vehicle: water
  T/C: 186 % of control
dose: 400.0 mg/kg/injection, schedule: Q01DX010 (ip), vehicle: water
  T/C: 189 % of control
dose: 600.0 mg/kg/injection, schedule: Q01DX010 (ip), vehicle: water
  T/C: 157 % of control

## Cn1nc([N+](=O)[O-])sc1=N
[5]
  T/C: 98 % of control
[6]
  T/C: 98 % of control
[7]
  T/C: 101 % of control

## CN=C(c1ccc(NC(=O)c2ccc(C(=O)Nc3ccc(C(=NC)N(C)c4ccccc4)cc3)cc2)cc1)N(C)c1ccccc1
dose: 0.94 mg/kg/injection, schedule: Q01DX Z (ip), vehicle: saline
  T/C: 106 % of control
dose: 1.88 mg/kg/injection, schedule: Q01DX Z (ip), vehicle: saline
  T/C: 104 % of control
dose: 3.75 mg/kg/injection, schedule: Q01DX Z (ip), vehicle: saline
  T/C: 90 % of control
